Here are results for four molecules from patent US6613798B1, “Small organic molecule regulators of cell proliferation” (Curis, Inc., priority 2000, dated 2003).

Structures are written as SMILES. Entries after “also recorded” stand apart in the source; their conditions may differ.

In one assay the test system is Gli-1. In words: Quantitative RT-PCR (TaqMan) measurement of Gli-1 transcript in C3H 10T1/2 cells. The assay is classed as cell-based, Murine. The note with it: compound concentration of 8 μM. The protocol:
(§1) The compounds of FIGS. 32 and 33 were tested for their ability to activate transcription of two well-studied targets of the Hedgehog pathway: the transcription factor Gli-1, and the putative Hedgehog receptor component Ptc-1.
(§2) Murine C3H 10T1/2 cells were seeded at approximately 200,000 cells per well in a 24-well plate in complete medium (10% FBS). After 24 hr, medium was removed and replaced with “starvation” medium (0.5% FBS) containing dilutions of compound or Hh protein. After 16-18 hr, total RNA was prepared using TriZol (Life Technologies, inc.).
(§3) One microgram aliquots of total RNA were used to prepare random hexamer-primed cDNA with […] Reverse transcriptase (Life Technologies, Inc.).
(§4) To measure the relative levels of Gli-1 and Ptc-1 transcripts, TaqMan assays (PE Biosystems) were performed with an ABI Prism 7700 Sequence Detection System. As an internal control, GAPDH transcript levels were simultaneously measured in each reaction. Data were analyzed using Sequence Detector v1.6.3 (Perkin Elmer).
A general note: In qPCR the cycle at which signal appears reflects the starting amount.

Another assay has as its system Ptc-1. Briefly: Quantitative RT-PCR (TaqMan) measurement of Ptc-1 transcript in C3H 10T1/2 cells. It counts as cell-based, Murine. The note with it: compound concentration of 8 μM. The protocol:
as §1, §2, §3, §4

The test system of assay [1] is cerebellar neuron precursors. In words: Cerebellar neuron precursor proliferation (3H-thymidine incorporation). The assay is classed as cell-based, rat. The note with it: in the absence of Hh protein treatment. The protocol:
In order to test the efficacy of Hedgehog signaling agonists, the ability of the agonists to stimulate the proliferation of cerebellar neuron precursors was determined. Cerebellar granule neuron precursors are known to respond to Hh protein by proliferating. To test the agonists, cerebellar neurons were dissected out of postnatal (one week) rat brains, and placed into primary cell culture. Treatment agents were added once, on the first day of culture (0 DIV). Cells were left in culture until 2 DIV, when 3H-thymidine was added for 5 hours; the amount of incorporation by the cells of this 3H-thymidine provides a measure of the level of proliferation of the cells. Cells were then lysed, and the incorporation of 3H-thymidine was determined. The positive control was Hh protein, at 1.0 μg/ml final concentration. Hh protein alone caused approximately a 20-fold increase in 3H-thymidine incorporation, consistent with the known ability of Shh to stimulate proliferation of these cells. Non-Hh-protein-stimulated cells, including cells treated with control vehicle (DMSO), had very low levels of proliferation. […] At 5.0 μM, the p-cyanophenyl compound B caused 10.2-fold induction of 3H-thymidine incorporation. […] At 1.0, 0.3, or 0.1 μM, D caused 16-, 17-, or 13-fold induction, respectively, of 3H thymidine incorporation into the cells.
A general note: Incorporation of labelled thymidine or its analogues reports DNA synthesis.

In assay [2] the test system is patched (ptc-lacZ β-galactosidase reporter). In words: Reporter mice assay (ptc-lacZ mice, X-gal staining of tissues). It counts as in vivo, mouse. The protocol: Mice with a β-galactosidase transgene (ptc-lacZ mice) under the regulatory control of the patched locus expresss the β-galactosidase protein in the same cells where the endogenous mouse patched gene is expressed. The β-galactosidase protein can thus be used as a faithful reporter of the expression of the endogenous patched gene.
Ptc-lacZ mice were divided into four treatment groups and were treated with the following compounds or combinations of compounds for four days, beginning on the first day after birth (dipal-Shh=dipalmitoylated Sonic hedgehog):
The vehicle for the agonist was 10% DMSO in PBS (pH 7.2). The agonist was injected from a 4.67 mM stock dissolved in the vehicle solution.
18 hours following the last injections, the mice were sacrificed and the following tissues were collected: skull, kidney, lung, scapula, skin and heart. All tissues were fixed in 0.2% glutaraldehyde, 5 mM EDTA (pH 8.0), 20 mM MgCl2, 100 mM Na2HPO4 for 30 minutes before staining in 1 mg/ml X-gal, 12.5 mM potassium ferrocyanide, 12.5 mM potassium ferricyanide, 2 mM MgCl2, 0.01% deoxycholate, 0.02% NP-40, and 100 mM Na2HPO4 for 30 hours. Tissues were judged for relative intensity and photographed.
FIG. 42: Ptc-lacZ mice were divided into two treatment groups and were treated with the following compounds for three days, beginning on the first day after birth:
The vehicle for the agonist was 10% DMSO in PBS (pH 7.2). The agonist was injected from a 1.0 mM stock dissolved in the vehicle solution.
Eighteen hours following the last injections, the mice were sacrificed and the forelimbs were collected and processed as described above.
In a third experiment, Ptc-lacZ mice were divided into five treatment groups and were treated with the following compounds for four days, beginning on the first day after birth:
The vehicle for the agonist was 10% DMSO in PBS (pH 7.2). The agonist was injected from stocks of 0.3, 0.1 and 0.03 mM dissolved in the vehicle solution.
Eighteen hours following the last injections, the mice were sacrificed and the forelimbs were collected and processed as described above. Results of this experiment are depicted in FIG. 43, in which the vehicle control is not shown.

The test system of the next assay is ptc-1 (d11) lacZ lungs. Briefly: Lung branching assay (ptc-1 lacZ lung explants). The assay is classed as cell-based, mouse. The note with it: 5 μM, 48 hrs culture. The protocol: E 12.5 old ptc-1 (d11) lacZ lungs were harvested and transgenic embryos identified by lacZ detection using tails. Explants were assembled on 1 μm polycarbonate filters (Costar) placed on top of plastic grids (histology embedding chamber) and placed in standard 12-well tissue culture plates filled with lung explant culture medium (DMEM based, additives optimized for the culture of mouse lungs) for 48 hrs, fixed in lacZ fixative, rinsed and stained for lacZ O/N at 37° C.
Results are depicted in FIG. 44. In the control panel on the left, LacZ expression can be observed in the mesenchyme immediately adjacent to distal branching tips, a pattern reflective of endogenous patched expression.

For assay [3], the system named is ptc-1 (d11) lacZ kidney explants. In words: Kidney branching assay (ptc-1 lacZ kidney explants). The note with it: 5 μM, 48 hrs culture. The assay is classed as cell-based, mouse. The protocol:
E13.5 old ptc-1 (d11) lacZ lungs were harvested and transgenic embryos identified by lacZ detection using tails. Explants were assembled on 1 μm polycarbonate filters (Costar) placed on top of plastic grids (histology embedding chamber) and placed in standard 12-well tissue culture plates filled with kidney explant culture medium (DMEM based, additives optimized for the culture of mouse lungs) for 48 hrs, fixed in lacZ fixative, rinsed and stained for lacZ O/N at 37° C.
Results are depicted in FIG. 45. In the control panel on the left, LacZ expression can be observed in the mesenchyme immediately adjacent to proximalmost ureteric epitheilium, a pattern reflective of endogenous patched expression.

The next assay concerns ptc-lacZ skin punches. In words: Skin explants from ptc-lacZ pups (X-Gal stain). It counts as cell-based, mouse. The note with it: agonist and a low dose of Hh protein, cultured 6 days. The protocol: Skin from ptc-lacZ E17.5 pups was excised with a 2 mm skin punch. Those skin punches were then cultured for 6 days in control media, or media including either agonist B or D or Hh protein, or media including both an agonist and Hh protein. The explants were then stained with X-Gal stain.

Assay [4] concerns human embryonic palatal mesenchyme (HEPM) cells with a Gli-Luc construct. Briefly: Gli-Luc reporter assay in human reporter cells. The assay is classed as cell-based. An excerpt: FIGS. 47A and B compare the activity of subject compounds O and R in mouse reporter cells (TM3 cells with a Gli-Luc reporter construct, as described above) and in human reporter cells (human embryonic palatal mesenchyme (HEPM) cells with a Gli-Luc construct).
(In a reporter assay the amount or activity of a reporter protein is the signal.)

With `COc1ccc(CN(C(=O)c2sc3ccccc3c2Cl)C2CCC(N)CC2)cc1-c1cccc([N+](=O)[O-])c1` (centres unmarked) [A], in the assay on Gli-1, the “induction of Gli-1 relative to that obtained with the optimal concentration of Hh protein” value is reported as around 40%. Moreover, the “induction of Ptc-1 relative to that obtained with the optimal concentration of Hh protein” value with Ptc-1 is around 40%. In assay [1], the “stimulation of 3H-thymidine incorporation” value (from here on “stimulation”) was “significantly stimulate 3H-thymidine incorporation”.
For the molecule `COc1ccc(CN(C(=O)c2sc3ccccc3c2Cl)C2CCC(N)CC2)cc1-c1ccc(C#N)cc1` (centres unmarked) [B], the “induction of Gli-1 relative to that obtained with the optimal concentration of Hh protein” value with Gli-1 was “approximately 60%”. The “induction of Ptc-1 relative to that obtained with the optimal concentration of Hh protein” value with Ptc-1 is recorded as “approximately 60%”. In addition, in assay [1], the “stimulation” value was “significantly stimulate 3H-thymidine incorporation”. The “upregulation of β-galactosidase (hedgehog pathway) in tissues” value in assay [2] (15 mg/kg/injection 4X/day plus dipal-Shh 1 mg/kg/injection 2X/day, four days from first day after birth, skull, kidney, lung, scapula, skin, heart) is “clearly capable of upregulating the hedgehog pathway in vivo”. Further, in the assay with ptc-1 (d11) lacZ lungs, the “LacZ reporter gene expression in lung explants” value is “significantly increased reporter gene expression and expansion of the expression domain of the transgene”. The “LacZ reporter gene expression in kidney explants” value in assay [3] is “significantly increased reporter gene expression and expansion of the expression domain of the transgene”.
Consider `CNC1CCC(N(Cc2ccc(OC)c(-c3ccc(C#N)cc3)c2)C(=O)c2sc3ccccc3c2Cl)CC1` (centres unmarked) [D], for which, in assay [1], the “stimulation” value is recorded as “strongly stimulated 3H-thymidine incorporation”. Also, the “upregulation of hedgehog pathway (β-galactosidase) in forelimbs” value is “very weak upregulation” in assay [2] (0.1 mg/kg/injection 4X/day, four days); “greater than that seen with injections of Hh protein” in assay [2] (0.3 mg/kg/injection 4X/day, four days); “highest levels of upregulation; also recorded: greater than that seen with injections of Hh protein” in assay [2] (0.9 mg/kg/injection 4X/day, four days, listed as agonist D); “clearly capable of upregulating the hedgehog pathway in vivo” in assay [2] (4 mg/kg/injection 4X/day, three days, absence of dipal-Shh, listed as Agonist D); “greater than that seen with injections of dipal-Shh” in assay [2] (4 mg/kg/injection 4X/day, three days, absence of dipal-Shh, listed as agonist D). Also, the “X-Gal staining of skin explants” value in the assay on ptc-lacZ skin punches is given as “Analogous results”.
With `CNC1CCC(N(Cc2ccc(-c3cccnc3)o2)C(=O)c2sc3ccccc3c2Cl)CC1` (centres unmarked) [R], the “activation of Gli-Luc reporter in human cells” value in assay [4] is listed as “activation of the reporter cell line”.
